# In patent US20260223845A1, “METHOD FOR PRODUCING TRYPTOPHAN DECOMPOSITION PRODUCT, METHOD FOR PRODUCING FORMYLKYNURENINE, METHOD FOR PRODUCING KYNURENINE, METHOD FOR PRODUCING TRYPTOPHAN RADICAL-CONTAINING AQUEOUS SOLUTION, AND BACTERICIDAL AQUEOUS SOLUTION” (NATIONAL UNIVERSITY CORPORATION TOKAI NATIONAL HIGHER …, priority 2023, published 2026):
# Like-named read-outs stand apart in the source and are kept apart here.
# Columns and labels:
# [1] = Lifespan of tryptophan radical in aqueous solution; format: physicochemical; details: in oxygen radical-irradiated aqueous solution
# Description: The precursor generated from Trp may be composed solely of Trp⋅, may be composed solely of Trp peroxide, or may include both Trp⋅ and Trp peroxide. […] Trp⋅ can be detected by electron spin resonance (ESR) spectroscopy. FKYN is generated by cleavage of a pyrrole ring in Trp peroxide. This cleavage occurs naturally in an aqueous solution. In other words, Trp peroxide decomposes on its own. Furthermore, since the generation of FKYN has been confirmed in the present disclosure, it is inferred that Trp peroxide is also generated, despite having a short lifespan. KYN is generated by the decomposition of FKYN.
# [2] = Bactericidal effect of oxygen radical-irradiated tryptophan-containing aqueous solution (previous research of the inventors; inference in Experimental Examples 1 to 3); format: cell-based; details: inferred from inactive FKYN, KYN, L-Trp fractions and ESR detection of Trp⋅
# Description: Therefore, in this experimental example, an attempt was made to detect Trp⋅ by electron spin resonance (ESR) spectroscopy.
# Here, as shown in FIG. 12 (b), it is known that Trp. is generated by the reaction between Trp and OH⋅. […] In the formulae in FIG. 12(b), X is indicated because it is thought that OH extracts H from Trp and X becomes H2O, but what is actually formed has not been accurately confirmed at this stage.
# From the above-described Experimental Examples 1 to 3, it was confirmed that the substances primarily generated by irradiating the tryptophan-containing aqueous solution with oxygen radicals are FKYN and KYN. In addition, Trp⋅, considered to be a precursor of FKYN and KYN, was detected by ESR measurement from the oxygen radical-irradiated aqueous solution. Based on the above, it is considered that short-lived precursors of FKYN and KYN (Trp⋅ and Trp peroxide) are also expressed in large quantities by the oxygen radical irradiation in terms of total generation concentration, and it can be said that the above-described precursors are bactericidal substances.
# [3] = maintaining a temperature of 15° C. or lower; cited from earlier work
# [4] = test system: Escherichia coli; test: Bactericidal effect test of redissolved HPLC fractions on Escherichia coli suspension, colony counting method; format: cell-based; details: component redissolved in ultrapure water, liquid temperature 24° C., mixed with Escherichia coli suspension, counted after 10 minutes; FIG. 5
# Protocol: Each aqueous solution (liquid temperature: 24° C.) prepared by redissolving each component in ultrapure water was mixed with a suspension of Escherichia coli, and after 10 minutes, the viable cell count of Escherichia coli was measured by a colony counting method. The viable cell count of Escherichia coli was also measured in the same manner for the oxygen radical-unirradiated aqueous solution.
Compound,lifespan [1],bactericidal effect [2],lifespan [3],bactericidal effect (viable cell count of Escherichia coli) [4]
tryptophan radical [Trp⋅],short-lived substance,has a bactericidal effect,can be extended,
"NC(CC(=O)c1ccccc1NC=O)C(=O)O (stereo not drawn) [component P1, formylkynurenine]",,,,not bactericidal substances
"N[C@@H](Cc1c[nH]c2ccccc12)C(=O)O [L-Trp, L-tryptophan]",,,,not bactericidal substances
"Nc1ccccc1C(=O)CC(N)C(=O)O (stereo not drawn) [component P2, kynurenine]",,,,not bactericidal substances
